Assays:
[1] = tested on: K-562; assay: NCI in vitro 60-cell drug screen (SRB assay); format: cell-based; settings: K-562 (Leukemia); 10^-5 molar concentration; 48 hours
[2] = tested on: MOLT-4; assay: NCI in vitro 60-cell drug screen (SRB assay); format: cell-based; settings: MOLT-4 (Leukemia); 10^-5 molar concentration; 48 hours
[3] = tested on: RPMI-8226; assay: NCI in vitro 60-cell drug screen (SRB assay); format: cell-based; settings: RPMI-8226 (Leukemia); 10^-5 molar concentration; 48 hours
[4] = tested on: HOP-62; assay: NCI in vitro 60-cell drug screen (SRB assay); format: cell-based; settings: HOP-62 (Non-small cell lung cancer); 10^-5 molar concentration; 48 hours
[5] = tested on: HOP-92; assay: NCI in vitro 60-cell drug screen (SRB assay); format: cell-based; settings: HOP-92 (Non-small cell lung cancer); 10^-5 molar concentration; 48 hours
[6] = tested on: NCI-H23; assay: NCI in vitro 60-cell drug screen (SRB assay); format: cell-based; settings: NCI-H23 (Non-small cell lung cancer); 10^-5 molar concentration; 48 hours
[7] = tested on: NCI-H460; assay: NCI in vitro 60-cell drug screen (SRB assay); format: cell-based; settings: NCI-H460 (Non-small cell lung cancer); 10^-5 molar concentration; 48 hours
[8] = tested on: NCI-H522; assay: NCI in vitro 60-cell drug screen (SRB assay); format: cell-based; settings: NCI-H522 (Non-small cell lung cancer); 10^-5 molar concentration; 48 hours
[9] = tested on: COLO 205; assay: NCI in vitro 60-cell drug screen (SRB assay); format: cell-based; settings: COLO 205 (Colon cancer); 10^-5 molar concentration; 48 hours
[10] = tested on: HCC-2998; assay: NCI in vitro 60-cell drug screen (SRB assay); format: cell-based; settings: HCC-2998 (Colon cancer); 10^-5 molar concentration; 48 hours
[11] = tested on: HCT-15; assay: NCI in vitro 60-cell drug screen (SRB assay); format: cell-based; settings: HCT-15 (Colon cancer); 10^-5 molar concentration; 48 hours
[12] = tested on: SW-620; assay: NCI in vitro 60-cell drug screen (SRB assay); format: cell-based; settings: SW-620 (Colon cancer); 10^-5 molar concentration; 48 hours
[13] = tested on: SF-268; assay: NCI in vitro 60-cell drug screen (SRB assay); format: cell-based; settings: SF-268 (CNS cancer); 10^-5 molar concentration; 48 hours
[14] = tested on: SNB-19; assay: NCI in vitro 60-cell drug screen (SRB assay); format: cell-based; settings: SNB-19 (CNS cancer); 10^-5 molar concentration; 48 hours
[15] = tested on: SNB-75; assay: NCI in vitro 60-cell drug screen (SRB assay); format: cell-based; settings: SNB-75 (CNS cancer); 10^-5 molar concentration; 48 hours
[16] = tested on: U251; assay: NCI in vitro 60-cell drug screen (SRB assay); format: cell-based; settings: U251 (CNS cancer); 10^-5 molar concentration; 48 hours
[17] = tested on: LOX IMVI; assay: NCI in vitro 60-cell drug screen (SRB assay); format: cell-based; settings: LOX IMVI (Melanoma); 10^-5 molar concentration; 48 hours
[18] = tested on: MALME-3M; assay: NCI in vitro 60-cell drug screen (SRB assay); format: cell-based; settings: MALME-3M (Melanoma); 10^-5 molar concentration; 48 hours
[19] = tested on: M14; assay: NCI in vitro 60-cell drug screen (SRB assay); format: cell-based; settings: M14 (Melanoma); 10^-5 molar concentration; 48 hours
[20] = tested on: SK-MEL-2; assay: NCI in vitro 60-cell drug screen (SRB assay); format: cell-based; settings: SK-MEL-2 (Melanoma); 10^-5 molar concentration; 48 hours
[21] = tested on: SK-MEL-28; assay: NCI in vitro 60-cell drug screen (SRB assay); format: cell-based; settings: SK-MEL-28 (Melanoma); 10^-5 molar concentration; 48 hours
[22] = tested on: SK-MEL-5; assay: NCI in vitro 60-cell drug screen (SRB assay); format: cell-based; settings: SK-MEL-5 (Melanoma); 10^-5 molar concentration; 48 hours
[23] = tested on: UACC-257; assay: NCI in vitro 60-cell drug screen (SRB assay); format: cell-based; settings: UACC-257 (Melanoma); 10^-5 molar concentration; 48 hours
[24] = tested on: UACC-62; assay: NCI in vitro 60-cell drug screen (SRB assay); format: cell-based; settings: UACC-62 (Melanoma); 10^-5 molar concentration; 48 hours
[25] = tested on: OVCAR-3; assay: NCI in vitro 60-cell drug screen (SRB assay); format: cell-based; settings: OVCAR-3 (Ovarian cancer); 10^-5 molar concentration; 48 hours
[26] = tested on: OVCAR-5; assay: NCI in vitro 60-cell drug screen (SRB assay); format: cell-based; settings: OVCAR-5 (Ovarian cancer); 10^-5 molar concentration; 48 hours
[27] = tested on: OVCAR-8; assay: NCI in vitro 60-cell drug screen (SRB assay); format: cell-based; settings: OVCAR-8 (Ovarian cancer); 10^-5 molar concentration; 48 hours
[28] = tested on: NCI/ADR-RES; assay: NCI in vitro 60-cell drug screen (SRB assay); format: cell-based; settings: NCI/ADR-RES (Ovarian cancer); 10^-5 molar concentration; 48 hours
[29] = tested on: 786-0; assay: NCI in vitro 60-cell drug screen (SRB assay); format: cell-based; settings: 786-0 (Renal cancer); 10^-5 molar concentration; 48 hours
[30] = tested on: ACHN; assay: NCI in vitro 60-cell drug screen (SRB assay); format: cell-based; settings: ACHN (Renal cancer); 10^-5 molar concentration; 48 hours
[31] = tested on: RXF 393; assay: NCI in vitro 60-cell drug screen (SRB assay); format: cell-based; settings: RXF 393 (Renal cancer); 10^-5 molar concentration; 48 hours
[32] = tested on: UO-31; assay: NCI in vitro 60-cell drug screen (SRB assay); format: cell-based; settings: UO-31 (Renal cancer); 10^-5 molar concentration; 48 hours
[33] = tested on: PC-3; assay: NCI in vitro 60-cell drug screen (SRB assay); format: cell-based; settings: PC-3 (Prostate cancer); 10^-5 molar concentration; 48 hours
[34] = tested on: MCF7; assay: NCI in vitro 60-cell drug screen (SRB assay); format: cell-based; settings: MCF7 (Breast cancer); 10^-5 molar concentration; 48 hours
[35] = tested on: HS 578T; assay: NCI in vitro 60-cell drug screen (SRB assay); format: cell-based; settings: HS 578T (Breast cancer); 10^-5 molar concentration; 48 hours
[36] = tested on: T-47D; assay: NCI in vitro 60-cell drug screen (SRB assay); format: cell-based; settings: T-47D (Breast cancer); 10^-5 molar concentration; 48 hours
[37] = tested on: 60 cell lines; assay: NCI in vitro 60-cell drug screen (SRB assay), whole panel statistics; settings: mean over the cell panel; 10^-5 molar concentration; 48 hours

Row | SMILES | Growth percent [1] [%] | Growth percent [2] [%] | Growth percent [3] [%] | Growth percent [4] [%] | Growth percent [5] [%] | Growth percent [6] [%] | Growth percent [7] [%] | Growth percent [8] [%] | Growth percent [9] [%] | Growth percent [10] [%] | Growth percent [11] [%] | Growth percent [12] [%] | Growth percent [13] [%] | Growth percent [14] [%] | Growth percent [15] [%] | Growth percent [16] [%] | Growth percent [17] [%] | Growth percent [18] [%] | Growth percent [19] [%] | Growth percent [20] [%] | further results
1 | O=c1c2cc(Cl)ccc2sc2c(O)nc3ccccc3c12 [Compound 4, 10-Chloro-6-hydroxy-12H-thiochromeno[2,3-c]quinolin-12-one] | 107.08 | 100.41 | 100.99 | 90.80 | 93.13 | 88.96 | 96.92 | 86.60 | 93.69 | 101.48 | 98.11 | 101.39 | 95.26 | 101.37 | 66.63 | 101.85 | 92.07 | 93.26 | 94.76 | 103.04 | Growth percent [21]: 116.59%; Growth percent [22]: 100.69%; Growth percent [23]: 108.36%; Growth percent [24]: 105.86%; Growth percent [25]: 106.37%; Growth percent [26]: 111.17%; Growth percent [27]: 100.55%; Growth percent [28]: 96.84%; Growth percent [29]: 99.76%; Growth percent [30]: 95.52%; Growth percent [31]: 116.94%; Growth percent [32]: 76.44%; Growth percent [33]: 91.90%; Growth percent [34]: 69.90%; Growth percent [35]: 113.28%; Growth percent [36]: 77.89%; Growth percent, Mean [37]: 97.17%
2 | O=c1c2cc(Cl)ccc2sc2c(N3CCOCC3)nc3ccccc3c12 [Compound 13, 10-Chloro-6-morpholino-12H-thiochromeno[2,3-c]quinolin-12-one] | 81.18 | 89.31 | 89.54 | 70.77 | 60.43 | 95.21 | 99.28 | 89.60 | 99.24 | 108.75 | 93.81 | 96.18 | 103.56 | 99.37 | 76.88 | 98.58 | 89.82 | 118.84 | 110.35 | 98.77 | Growth percent [21]: 111.28%; Growth percent [22]: 95.88%; Growth percent [23]: 110.91%; Growth percent [24]: 87.86%; Growth percent [25]: 96.54%; Growth percent [26]: 95.97%; Growth percent [27]: 83.66%; Growth percent [28]: 98.16%; Growth percent [29]: 99.31%; Growth percent [30]: 82.54%; Growth percent [31]: 108.61%; Growth percent [32]: 73.11%; Growth percent [33]: 79.80%; Growth percent [34]: 50.59%; Growth percent [35]: 83.27%; Growth percent [36]: 80.00%; Growth percent, Mean [37]: 90.52%
3 | O=c1c2cc(Cl)ccc2sc2c(N3CCN(CCO)CC3)nc3ccccc3c12 [Compound 10, 10-Chloro-6-(4-(2-hydroxyethyl)piperazin-1-yl)-12H-thiochrom eno[2,3-c]quinolin-12one] | 35.47 | 70.01 | 84.87 | 67.83 | 39.64 | 84.75 | 93.71 | 94.76 | 88.90 | 103.49 | 82.92 | 88.11 | 87.80 | 84.81 | 77.64 | 83.31 | 87.79 | 119.20 | 101.70 | 104.06 | Growth percent [21]: 100.66%; Growth percent [22]: 94.13%; Growth percent [23]: 102.79%; Growth percent [24]: 91.36%; Growth percent [25]: 93.92%; Growth percent [26]: 95.70%; Growth percent [27]: 84.95%; Growth percent [28]: 92.05%; Growth percent [29]: 85.58%; Growth percent [30]: 83.05%; Growth percent [31]: 70.31%; Growth percent [32]: 42.34%; Growth percent [33]: 77.99%; Growth percent [34]: 51.73%; Growth percent [35]: 76.01%; Growth percent [36]: 87.22%; Growth percent, Mean [37]: 84.06%
4 | CN(C)c1nc2ccccc2c2c(=O)c3cc(Cl)ccc3sc12 [Compound 6, 10-Chloro-6-dimethylamino-12H-thiochromeno[2,3-c]quinolin-12-one] | 99.71 | 97.52 | 98.20 | 43.62 | 58.65 | 77.00 | 88.86 | 70.42 | 89.67 | 97.20 | 89.27 | 105.18 | 77.86 | 76.46 | 15.29 | 93.55 | 86.53 | 89.70 | 94.36 | 87.26 | Growth percent [21]: 96.60%; Growth percent [22]: 97.92%; Growth percent [23]: 109.22%; Growth percent [24]: 87.80%; Growth percent [25]: 79.65%; Growth percent [26]: 98.05%; Growth percent [27]: 68.53%; Growth percent [28]: 87.86%; Growth percent [29]: 87.00%; Growth percent [30]: 64.81%; Growth percent [31]: 83.17%; Growth percent [32]: 73.81%; Growth percent [33]: 81.25%; Growth percent [34]: 22.19%; Growth percent [35]: 60.38%; Growth percent [36]: 37.66%; Growth percent, Mean [37]: 80.59%
